Like-named read-outs stand apart in the source and are kept apart here. Blank lines part the entries; values can stand above or below the compound they belong to.
Tests used:
[1] = cited from earlier work
[2] = tested on: HPA axis
Method: (§1) Each of 39 normal human subjects was hospitalized on a clinical pharmacology ward for the entire time (14 days) while the procedures described herein were carried out.
(§2) The following tests were performed, except as otherwise indicated in Table II below, on each of the subjects:
Metyrapone (METP) test, according to a modification of the method described by Liddle et al., J. Clin. Endocr. […] The urine of each of the subjects was collected at 6 hour intervals during the entire 14 day period and analyzed for 17-ketogenic steroids for the METP test.
On each of days 5-11 the various corticosteroids were orally administered, all subjects receiving their daily single dosage of corticosteroids at 6 A.M. Tabulated below, in Table II, are the numbers of subjects receiving a particular dosage per day of a particular corticosteroid.

[3] = Metabolic effects: loss of urinary nitrogen and calcium
Method: Four normal subjects were admitted to a hospital metabolic ward and maintained on a constant diet for days 1-3, the equilibration period.
On days 4-9, the control period, the subjects were also kept on the same constant diet and their urine was collected every 24 hours and assayed for nitrogen and calcium, determined fluorometrically using the method of Henry, R. J., Clinical Chemistry Principles and Techniques, 3rd Edition, p.
On days 10-15, the treatment period, the subjects were still kept on the same constant diet, and 20 mg. (three subjects, 1, 2 and 3) and 12.5 mg. (one subject, 4) of 6-chloro-11β,17α,21-trihydroxypregna-1,4-diene-3,20-dione were daily orally administered in a single dose. The urine of the subjects was collected every 24 hours and assayed for nitrogen and calcium.
After 8 weeks had elapsed, subjects 1 and 2 were readmitted to the hospital metabolic ward.

[4] = tested on: HPA axis; details: oral, 6 A.M., 7 days
Method: as §1, §2
On each of days 5-11 the various corticosteroids were orally administered, all subjects receiving their daily single dosage of corticosteroids at 6 A.M. Tabulated below, in Table II, are the numbers of subjects receiving a particular dosage per day of a particular corticosteroid. The dosage regimens chosen reflect the relative potencies of the corticosteroids tested.

[5] = human, in vivo
Method: The plasma of each volunteer was analyzed for organic solvent extractable radioactivity over a 24 hour period.

[6] = described in U.S. Pat. No. 3,232,965; cited from earlier work
[7] = tested on: HPA axis; details: in vivo
Method: 1. Fasting plasma cortisol level at 6 A.M. on each of days 1-14, according to the method of Murphy et al., J. Clin. Endocr.
3. […] The urine of each of the subjects was collected at 6 hour intervals during the entire 14 day period and analyzed for 17-ketogenic steroids for the METP test.

SMILES: C[C@]12C=CC(=O)C=C1CC[C@H]1[C@@H]3C[C@@H](O)[C@](O)(C(=O)CO)[C@@]3(C)C[C@H](O)[C@@]12F [9α-Fluoro-16α-hydroxyprednisolone, 9α-fluoro-11β,16α,17α,21-tetrahydroxypregna-1,4-diene-3,20-dione]
Plasma Half-Life ([1]; in vivo): ≥ 3.33 h

subjects showing a normal metyrapone test ([2]; in vivo): none
SMILES: C[C@H]1C[C@H]2[C@@H]3CCC4=CC(=O)C=C[C@]4(C)[C@@]3(F)[C@@H](O)C[C@]2(C)[C@@]1(O)C(=O)CO [9α-Fluoro-16β-methylprednisolone]

SMILES: C[C@]12C=CC(=O)C=C1CC[C@@H]1[C@@H]2[C@@H](O)C[C@@]2(C)[C@H]1CC[C@]2(O)C(=O)CO [Prednisolone]
loss of nitrogen and calcium, comparison of 6-chloro compound with prednisolone ([3]; equipotent doses, subjects 1 and 2): greater loss of both nitrogen and calcium
Normal/Total METP Response ([2]; 25.0 mg per day, oral, 6 A.M., 7 days): 3/3
Plasma Half-Life ([1]; Melby, Ann. Int. Med., 81:505-512, 1974): ≥ 3.33 h
Normal/Total A.M. Plasma Cortisol ([4]; 5.0 mg per day): 3/3
Normal/Total A.M. Plasma Cortisol ([4]; 10.0 mg per day): 3/3

loss of nitrogen and calcium, comparison of 6-chloro compound with prednisolone ([3]; in vivo): minimized
Plasma Half-Life [5]: 2 h
half-life, volunteer No. 1 [5]: approximately 110 minutes
half-life, volunteer No. 2 [5]: approximately 125 minutes
SMILES: C[C@]12C=CC(=O)C=C1C(Cl)=C[C@@H]1[C@@H]2[C@@H](O)C[C@@]2(C)[C@H]1CC[C@]2(O)C(=O)CO
action [6]: cortisone like (anti-inflammatory) action
unwanted side-effects associated with HPA axis suppression [7]: not present

Reference: patent publication US4051241A
